Converted amounts (≈) assume the structure as drawn. Where two headings read alike, the source gives them in different places.
What was measured:
Mtb [1] = test: microbe, parasite or virus in culture; format: cell-based, Mycobacterium tuberculosis; details: Mycobacterium tuberculosis, read-out: MIC (III)
Mtb [2] = test: microbe, parasite or virus in culture; format: cell-based, Mycobacterium tuberculosis; details: Mycobacterium tuberculosis, read-out: MIC (I)
in vitro = details: African green monkey

Compound	MIC (Mtb [1])	MIC (Mtb [2])	CC50 (in vitro)
CCOC(=O)NC(=O)c1ccsc1NC(=O)c1cc2cnccc2s1 [Compound 334]	> 25 µg/mL	< 1 µg/mL	> 50 µg/mL
CCOC(=O)NC(=O)c1ccsc1NC(=O)c1sc(C)nc1C(F)(F)F [Compound 137]	> 25 µg/mL	> 3 µg/mL	> 50 µg/mL
C=CCOC(=O)NC(=O)c1ccsc1NC(=O)c1cnc2ccnn2c1 [Compound 297]	< 5 µg/mL	< 1 µg/mL	< 25 µg/mL
CCOC(=O)NC(=O)c1c(C)csc1NC(=O)c1ccc2scnc2c1 [Compound 146]	> 25 µg/mL	> 3 µg/mL	> 50 µg/mL
CCOC(=O)NC(=O)c1ccsc1NC(=O)C1CCc2ccccc2N1 (stereo not drawn) [Compound 143]	5 to 25 µg/mL (≈ 13.4 to 66.9 µM)	> 3 µg/mL	> 50 µg/mL
CC(C)OC(=O)NC(=O)c1ccsc1NC(=O)c1nc2ccccc2o1 [Compound 397]	> 25 µg/mL	< 1 µg/mL	< 25 µg/mL
O=C(NC(=O)c1ccsc1NC(=O)c1nc2cnccc2s1)OCc1ccccc1F [Compound 287]	5 to 25 µg/mL (≈ 11 to 54.8 µM)	1 to 3 µg/mL (≈ 2.19 to 6.57 µM)	25 to 50 µg/mL (≈ 54.8 to 110 µM)
CCOC(=O)NC(=O)c1ccsc1NC(=O)c1ccc2sc(N3CCN(C)CC3)nc2c1 [Compound 59]	5 to 25 µg/mL (≈ 10.6 to 52.8 µM)	< 1 µg/mL	> 50 µg/mL
O=C(Nc1sccc1C(=O)N1CCN(c2ccccc2)CC1)c1nc2ccccc2s1 [Compound 258]	> 25 µg/mL	> 3 µg/mL	> 50 µg/mL
CCOC(=O)NC(=O)c1ccsc1NC(=O)c1nc2c(N(C)C)nccc2s1 [Compound 270]	> 25 µg/mL	< 1 µg/mL	> 50 µg/mL
CCOC(=O)NC(=O)c1ccsc1NC(=O)c1cnc(OC)cn1 [Compound 127]	> 25 µg/mL	> 3 µg/mL	> 50 µg/mL
CN(C)C(=O)NC(=O)c1ccsc1NC(=O)c1cn2ccccc2n1 [Compound 383]	> 25 µg/mL	> 3 µg/mL	< 25 µg/mL
O=C(NC(=O)c1ccsc1NC(=O)c1nc2cccnc2s1)OCc1ccccc1C(F)(F)F [Compound 288]	5 to 25 µg/mL (≈ 9.87 to 49.4 µM)	> 3 µg/mL	< 25 µg/mL
CCOC(=O)N(C)C(=O)c1ccsc1NC(=O)c1cn2ccccc2n1 [Compound 377]	> 25 µg/mL	> 3 µg/mL	25 to 50 µg/mL (≈ 67.1 to 134 µM)
O=C(Nc1sccc1C(=O)NC1CCNCC1)c1nc2ccccc2s1 [Compound 259]	> 25 µg/mL	> 3 µg/mL	> 50 µg/mL
CCOC(=O)NC(=O)c1ccsc1NC(=O)c1nn(-c2ccccc2)nc1C [Compound 138]	> 25 µg/mL	> 3 µg/mL	> 50 µg/mL
CCOC(=O)NC(=O)c1ccsc1NC(=O)c1ccc2nccn2n1 [Compound 77]	> 25 µg/mL	1 to 3 µg/mL (≈ 2.78 to 8.35 µM)	> 50 µg/mL
CCOC(=O)NC(=O)c1cc(F)sc1NC(=O)c1cnc2ccnn2c1 [Compound 341]	> 25 µg/mL	< 1 µg/mL	25 to 50 µg/mL (≈ 66.3 to 133 µM)
CCOC(=O)NC(=O)c1ccsc1NC(=O)c1cn2c(C)cccc2n1 [Compound 290]	> 25 µg/mL	> 3 µg/mL	> 50 µg/mL
O=C(NC(=O)c1ccsc1NC(=O)c1nc2cnccc2s1)OCc1ccccc1 [Compound 101]	5 to 25 µg/mL (≈ 11.4 to 57 µM)	< 1 µg/mL	> 50 µg/mL
CCC(OC(=O)NC(=O)c1ccsc1NC(=O)c1nc2cnccc2s1)c1ccccc1 (stereo not drawn) [Compound 305]	> 25 µg/mL	1 to 3 µg/mL (≈ 2.14 to 6.43 µM)	< 25 µg/mL

Compound	MIC (Mtb [1])	MIC (Mtb [2])	CC50 (in vitro)
CCOC(=O)NC(=O)c1ccsc1NC(=O)c1nc(C(F)(F)F)cs1 [Compound 144]	> 25 µg/mL	> 3 µg/mL	> 50 µg/mL
CCOC(=O)NC(=O)c1ccsc1NC(=O)c1nc2c(s1)CCN(C)C2 [Compound 85]	< 5 µg/mL	1 to 3 µg/mL (≈ 2.53 to 7.6 µM)	> 50 µg/mL
CCOC(=O)NC(=O)c1ccsc1NC(=O)C1COc2cc(OC)ccc2C1 (stereo not drawn) [Compound 70]	> 25 µg/mL	> 3 µg/mL	> 50 µg/mL
CC(CN1CCOCC1)OC(=O)NC(=O)c1ccsc1NC(=O)c1nc2ccccc2s1 (stereo not drawn) [Compound 34]	5 to 25 µg/mL (≈ 10.5 to 52.7 µM)	> 3 µg/mL	< 25 µg/mL
CCOC(=O)NC(=O)c1ccsc1NC(=O)c1nc2c(N3CCN(C)CC3)nccc2s1 [Compound 262]	5 to 25 µg/mL (≈ 10.5 to 52.7 µM)	1 to 3 µg/mL (≈ 2.11 to 6.32 µM)	25 to 50 µg/mL (≈ 52.7 to 105 µM)
CCOC(=O)NC(=O)c1ccsc1NC(=O)c1cc2ccccn2c1 [Compound 310]	> 25 µg/mL	> 3 µg/mL	> 50 µg/mL
CCOC(=O)NC(=O)c1ccsc1NC(=O)c1cn2c(n1)sc1ccccc12 [Compound 292]	> 25 µg/mL	> 3 µg/mL	> 50 µg/mL
CCOC(=O)NC(=O)c1ccsc1NC(=O)c1ccnc(NC(=O)N2CCCCC2)c1 [Compound 51]	> 25 µg/mL	< 1 µg/mL	25 to 50 µg/mL (≈ 56.1 to 112 µM)
COCCOC(=O)NC(=O)c1ccsc1NC(=O)c1cnc2ccnn2c1 [Compound 372]	> 25 µg/mL	< 1 µg/mL	25 to 50 µg/mL (≈ 64.2 to 128 µM)
COCCOC(=O)NC(=O)c1ccsc1NC(=O)c1nc2ccccc2s1 [Compound 18]	> 25 µg/mL	< 1 µg/mL	> 50 µg/mL
CCOC(=O)NC(=O)c1cc(CC(C(=O)OCC)C(=O)OCC)sc1NC(=O)c1nc2cnccc2s1 [Compound 278]	> 25 µg/mL	> 3 µg/mL	> 50 µg/mL
CCOC(=O)NC(=O)c1ccsc1NC(=O)c1nc2ccccc2o1 [Compound 396]	> 25 µg/mL	< 1 µg/mL	< 25 µg/mL
CCC(OC(=O)NC(=O)c1ccsc1NC(=O)c1nc2ccccc2s1)c1ccccc1 (stereo not drawn) [Compound 307]	5 to 25 µg/mL (≈ 10.7 to 53.7 µM)	> 3 µg/mL	< 25 µg/mL
CCOC(=O)NC(=O)c1ccsc1NC(=O)/C=C/c1ccncc1 [Compound 356]	> 25 µg/mL	> 3 µg/mL	25 to 50 µg/mL (≈ 72.4 to 145 µM)
O=C(NC(=O)c1ccsc1NC(=O)c1cnc2ccnn2c1)OCCC(F)(F)F [Compound 322]	> 25 µg/mL	> 3 µg/mL	< 25 µg/mL
CC1CCN(C(=O)c2ccsc2NC(=O)c2nc3ccccc3s2)CC1 [Compound 260]	> 25 µg/mL	> 3 µg/mL	25 to 50 µg/mL (≈ 64.8 to 130 µM)
O=C(NC(=O)c1ccsc1NC(=O)c1cnc2ccnn2c1)OCc1ccccc1C(F)(F)F [Compound 289]	> 25 µg/mL	> 3 µg/mL	< 25 µg/mL
CCN1CCN(C(=O)c2ccsc2NC(=O)c2nc3ccccc3s2)CC1 [Compound 257]	5 to 25 µg/mL (≈ 12.5 to 62.4 µM)	> 3 µg/mL	25 to 50 µg/mL (≈ 62.4 to 125 µM)
O=C(NC(=O)c1ccsc1NC(=O)c1nc2cnccc2s1)OCc1ccc(F)cc1 [Compound 275]	> 25 µg/mL	> 3 µg/mL	25 to 50 µg/mL (≈ 54.8 to 110 µM)
O=C(NC(=O)c1ccsc1NC(=O)c1nc2ccccc2s1)OCCC(F)(F)F [Compound 319]	> 25 µg/mL	< 1 µg/mL	< 25 µg/mL
CCOC(=O)NC(=O)c1ccsc1NC(=O)c1cnc2ccccc2c1 [Compound 264]	5 to 25 µg/mL (≈ 13.5 to 67.7 µM)	< 1 µg/mL	< 25 µg/mL

Compound	MIC (Mtb [1])	MIC (Mtb [2])	CC50 (in vitro)
CC(C)(C)C(=O)Nc1cc(C(=O)Nc2sccc2C(=O)NC(=O)OCCN2CCOCC2)ccn1 [Compound 32]	> 25 µg/mL	> 3 µg/mL	> 50 µg/mL
O=C(NC(=O)c1ccsc1NC(=O)c1nc2cnccc2s1)OCc1ccccc1C(F)(F)F [Compound 295]	5 to 25 µg/mL (≈ 9.87 to 49.4 µM)	> 3 µg/mL	< 25 µg/mL
CCOC(=O)NC(=O)c1ccsc1NC(=O)c1ccc2c(c1)CCCC2 [Compound 119]	> 25 µg/mL	> 3 µg/mL	> 50 µg/mL
CCOC(=O)NC(=O)c1ccsc1NC(=O)c1cc2nc(C)cc(C)n2n1 [Compound 121]	> 25 µg/mL	> 3 µg/mL	> 50 µg/mL
CC(C)OC(=O)NC(=O)c1ccsc1NC(=O)c1cnc2ccnn2c1 [Compound 298]	< 5 µg/mL	< 1 µg/mL	< 25 µg/mL
COC(=O)NC(=O)c1ccsc1NC(=O)c1nc2cnccc2s1 [Compound 314]	> 25 µg/mL	> 3 µg/mL	25 to 50 µg/mL (≈ 69 to 138 µM)
CCOC(=O)NC(=O)c1ccsc1NC(=O)c1nc2c(s1)CCN(c1ccccc1)C2 [Compound 97]	> 25 µg/mL	< 1 µg/mL	> 50 µg/mL
O=C(NC(=O)c1ccsc1NC(=O)c1nc2ccccc2s1)OCc1ccc(F)cc1 [Compound 274]	> 25 µg/mL	1 to 3 µg/mL (≈ 2.2 to 6.59 µM)	< 25 µg/mL
O=C(NC(=O)c1cc(F)sc1NC(=O)c1nc2ccccc2s1)OCCN1CCOCC1 [Compound 388]	> 25 µg/mL	< 1 µg/mL	< 25 µg/mL
CCOC(=O)NC(=O)c1ccsc1NC(=O)C1COc2ccc(OC)cc2C1 (stereo not drawn) [Compound 71]	< 5 µg/mL	1 to 3 µg/mL (≈ 2.47 to 7.42 µM)	> 50 µg/mL
CCOC(=O)NC(=O)c1ccsc1NC(=O)c1nc2c(N(C)C)ccnc2s1 [Compound 268]	> 25 µg/mL	< 1 µg/mL	> 50 µg/mL
CCOC(=O)NC(=O)c1ccsc1NC(=O)c1ccc2c(c1)CCO2 [Compound 132]	5 to 25 µg/mL (≈ 13.9 to 69.4 µM)	> 3 µg/mL	> 50 µg/mL
CC(C)OC(=O)NC(=O)c1cc(F)sc1NC(=O)c1nc2ncccc2s1 [Compound 391]	> 25 µg/mL	< 1 µg/mL	< 25 µg/mL
C=CCOC(=O)NC(=O)c1ccsc1NC(=O)c1nc2ccccc2s1 [Compound 293]	< 5 µg/mL	< 1 µg/mL	< 25 µg/mL
CCOC(=O)NC(=O)c1ccsc1NC(=O)c1ccc2nccn2c1 [Compound 73]	> 25 µg/mL	1 to 3 µg/mL (≈ 2.79 to 8.37 µM)	> 50 µg/mL
O=C(NC(=O)c1ccsc1NC(=O)c1ccnc(NC(=O)N2CCOCC2)c1)OCCF [Compound 48]	> 25 µg/mL	< 1 µg/mL	> 50 µg/mL
CCOC(=O)NC(=O)c1ccsc1NC(=O)Nc1nc2ccccc2s1 [Compound 312]	> 25 µg/mL	> 3 µg/mL	25 to 50 µg/mL (≈ 64 to 128 µM)
O=C(NC(=O)c1ccsc1NC(=O)c1nc2ccccc2s1)OCCOCc1ccccc1 [Compound 371]	5 to 25 µg/mL (≈ 10.4 to 51.9 µM)	< 1 µg/mL	< 25 µg/mL
CCOC(=O)NC(=O)c1cc(F)sc1NC(=O)c1ccc2nccn2n1 [Compound 387]	> 25 µg/mL	1 to 3 µg/mL (≈ 2.65 to 7.95 µM)	< 25 µg/mL

— patent US20160194299A1 (priority 2013, published 2016)
